In patent US20020049223A1, “Quinoline and naphthyridine carboxylic acid antibacterials” (priority 1999, published 2002):
Structures can show the parent of a compound that is named as a salt.

Columns and labels:
Experiment in all cases: Assay B: in vitro antibacterial activity, broth microdilution MIC (NCCLS)
Type in all cases: cell-based
Escherichia coli JUHL = conditions: Table 2, Assay B, cation-adjusted Mueller Hinton broth, 35° C., 16 to 20 hr; code D = Escherichia coli JUHL; unit assumed
Summary of the method: (§1)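 MIC is the lowest concentration with no visible growth after serial two-fold dilution in cation-adjusted Mueller Hinton broth, approximately 5×10^5 CFU/mL inoculum, 16-20 h at 35 °C in air (NCCLS). Broth for H. influenzae gets 5 g/L yeast extract, 0.3 mmol/L hematin and 15 mg/L NAD, for S. pneumoniae 3% lysed horse blood; both incubated 20-24 h.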

[1] = system: Haemophilus influenzae DILL AMP R; conditions: Table 2, Assay B, Mueller Hinton broth with yeast extract, hematin and NAD, 20 to 24 hr; code E = Haemophilus influenzae DILL AMP R; unit assumed
Summary of the method: as §1

[2] = system: Staphylococcus aureus ATCC 6538P; conditions: Table 2, Assay B, cation-adjusted Mueller Hinton broth, 35° C., 16 to 20 hr; code A = Staphylococcus aureus ATCC 6538P; unit assumed
Summary of the method: as §1

[3] = system: Enterococcus faecalis PIU 1967; conditions: Table 2, Assay B, cation-adjusted Mueller Hinton broth, 35° C., 16 to 20 hr; code B = Enterococcus faecalis PIU 1967; unit assumed
Summary of the method: as §1

[4] = system: Streptococcus pneumoniae ATCC 6303; conditions: Table 2, Assay B, Mueller Hinton broth with 3% lysed horse blood, 20 to 24 hr; code F = Streptococcus pneumoniae ATCC 6303; unit assumed
Summary of the method: as §1

With `COc1c(-c2cc3c(s2)CC(NS(C)(=O)=O)C3)ccc2c(=O)c(C(=O)O)cn(C3CC3)c12` (stereo not drawn) [Example 254, 1-cyclopropyl-8-methoxy-7-(5-((methylsulfonyl)amino)-5,6-dihydro-4H-cyclopenta[b]thien-2-yl)-4-oxo-1,4-dihydro-3-quinolinecarboxylic acid] the Antibacterial Activity (MIC's), D (Escherichia coli JUHL) was 1 µg/mL, the Antibacterial Activity (MIC's), E [1] was 0.06 µg/mL and the Antibacterial Activity (MIC's), A [2] was 0.06 µg/mL. For the same compound, the Antibacterial Activity (MIC's), B [3] was 0.5 µg/mL and the Antibacterial Activity (MIC's), F [4] was 0.25 µg/mL.
`CNC1CCCc2sc(-c3c(F)c(N)c4c(=O)c(C(=O)O)cn(C5CC5)c4c3F)cc21.Cl` (stereo not drawn) [Example 346, 5-amino-1-cyclopropyl-6,8-difluoro-7-(4-(methylamino)-4,5,6,7-tetrahydro-1-benzothien-2-yl)-4-oxo-1,4-dihydroquinoline-3-carboxylic acid hydrochloride] showed an Antibacterial Activity (MIC's), D (Escherichia coli JUHL) of 0.125 µg/mL, an Antibacterial Activity (MIC's), E [1] of 0.015 µg/mL and an Antibacterial Activity (MIC's), A [2] of no more than 0.004 µg/mL. It also gave an Antibacterial Activity (MIC's), B [3] of 0.03 µg/mL and an Antibacterial Activity (MIC's), F [4] of 0.008 µg/mL.
With `O=C(O)c1cn(C2CC2)c2c(F)c(-c3cc4c(s3)C(O)CCC4)c(F)cc2c1=O` (stereo not drawn) [Example 295, 1-cyclopropyl-6,8-difluoro-7-(7-hydroxy-4,5,6,7-tetrahydro-1-benzothien-2-yl)-4-oxo-1,4-dihydroquinoline-3-carboxylic acid] the Antibacterial Activity (MIC's), D (Escherichia coli JUHL) was 0.03 µg/mL, the Antibacterial Activity (MIC's), E [1] was no more than 0.004 µg/mL and the Antibacterial Activity (MIC's), A [2] was no more than 0.004 µg/mL. It also gave an Antibacterial Activity (MIC's), B [3] of 0.008 µg/mL and an Antibacterial Activity (MIC's), F [4] of 0.03 µg/mL.
In the case of `Cl.NC1CCCc2sc(-c3ccc4c(=O)c(C(=O)O)cn(C5CC5)c4n3)cc21` (stereo not drawn) [Example 200, 7-(4-amino-4,5,6,7-tetrahydro-1-benzothien-2-yl)-1-cyclopropyl-4-oxo-1,4-dihydro[1,8]naphthyridine-3-carboxylic acid hydrochloride], the Antibacterial Activity (MIC's), D (Escherichia coli JUHL) is reported as 0.06 µg/mL, the Antibacterial Activity (MIC's), E [1] is reported as 0.03 µg/mL and the Antibacterial Activity (MIC's), A [2] is reported as 0.03 µg/mL. It also gave an Antibacterial Activity (MIC's), B [3] of 0.125 µg/mL and an Antibacterial Activity (MIC's), F [4] of 0.125 µg/mL.
For `COc1c(-c2cc3c(s2)C(N)C(F)CC3)ccc2c(=O)c(C(=O)O)cn(C3CC3)c12.Cl` (stereo not drawn) [Example 237, 7-(7-amino-6-fluoro-4,5,6,7-tetrahydro-1-benzothien-2-yl)-1-cyclopropyl-8-methoxy-4-oxo-1,4-dihydro-3-quinolinecarboxylic acid hydrochloride], the Antibacterial Activity (MIC's), D (Escherichia coli JUHL) was 0.125 µg/mL, the Antibacterial Activity (MIC's), E [1] was 0.03 µg/mL and the Antibacterial Activity (MIC's), A [2] was 0.015 µg/mL. The Antibacterial Activity (MIC's), B [3] was 0.5 µg/mL and the Antibacterial Activity (MIC's), F [4] was 0.125 µg/mL.
Compound `COc1c(-c2cc3c(s2)CCCC3N)c(F)cc2c(=O)c(C(=O)O)cn(C3CC3)c12.Cl` (stereo not drawn) [Example 224, 7-(4-amino-4,5,6,7-tetrahydro-1-benzothien-2-yl)-1-cyclopropyl-6-fluoro-8-methoxy-4-oxo-1,4-dihydro-3-quinolinecarboxylic acid hydrochloride] has an Antibacterial Activity (MIC's), D (Escherichia coli JUHL) of 0.125 µg/mL, an Antibacterial Activity (MIC's), E [1] of 0.015 µg/mL and an Antibacterial Activity (MIC's), A [2] of 0.015 µg/mL. For the same compound, the Antibacterial Activity (MIC's), B [3] was 0.03 µg/mL and the Antibacterial Activity (MIC's), F [4] was 0.03 µg/mL.
`COc1c(-c2cc3c(s2)CCCC3n2cccc2)ccc2c(=O)c(C(=O)O)cn(C3CC3)c12` (stereo not drawn) [Example 89, 1-cyclopropyl-8-methoxy-4-oxo-7-(4-(1H-pyrrol-1-yl)-4,5,6,7-tetrahydro-1-benzothien-2-yl)-1,4-dihydro-3-quinolinecarboxylic acid] showed an Antibacterial Activity (MIC's), D (Escherichia coli JUHL) of 2 µg/mL, an Antibacterial Activity (MIC's), E [1] of 0.5 µg/mL and an Antibacterial Activity (MIC's), A [2] of 0.125 µg/mL. The Antibacterial Activity (MIC's), B [3] was 1 µg/mL and the Antibacterial Activity (MIC's), F [4] was 1 µg/mL.
With `Cl.NC1CCCc2cc(-c3nc4c(cc3F)c(=O)c(C(=O)O)cn4C3CC3)sc21` (stereo not drawn) [Example 271, 7-(7-amino-4,5,6,7-tetrahydro-1-benzothien-2-yl)-1-cyclopropyl-6-fluoro-4-oxo-1,4-dihydro-1,8-naphthyridine-3-carboxylic acid hydrochloride] the Antibacterial Activity (MIC's), D (Escherichia coli JUHL) was no more than 0.004 µg/mL, the Antibacterial Activity (MIC's), E [1] was no more than 0.004 µg/mL and the Antibacterial Activity (MIC's), A [2] was no more than 0.004 µg/mL. It also gave an Antibacterial Activity (MIC's), B [3] of 0.015 µg/mL and an Antibacterial Activity (MIC's), F [4] of no more than 0.004 µg/mL.
In the case of `COc1c(-c2cc3c(s2)CNCC3O)ccc2c(=O)c(C(=O)O)cn(C3CC3)c12` (stereo not drawn) [Example 209, 1-cyclopropyl-7-(4-hydroxy-4,5,6,7-tetrahydrothieno[2,3-c]pyridin-2-yl)-8-methoxy-4-oxo-1,4-dihydro-3-quinolinecarboxylic acid], the Antibacterial Activity (MIC's), D (Escherichia coli JUHL) is reported as 0.25 µg/mL, the Antibacterial Activity (MIC's), E [1] is reported as 0.03 µg/mL and the Antibacterial Activity (MIC's), A [2] is reported as 0.125 µg/mL. It also gave an Antibacterial Activity (MIC's), B [3] of 0.5 µg/mL and an Antibacterial Activity (MIC's), F [4] of 0.25 µg/mL.
Compound `COc1c(-c2cc3c(s2)S(=O)(=O)N(C)CC3N)ccc2c(=O)c(C(=O)O)cn(C3CC3)c12.Cl` (stereo not drawn) [Example 109, 7-(4-amino-2-methyl-1,1-dioxido-3,4-dihydro-2H-thieno[3,2-e][1,2]thiazin-6-yl)-1-cyclopropyl-8-methoxy-4-oxo-1,4-dihydro-3-quinolinecarboxylic acid hydrochloride] has an Antibacterial Activity (MIC's), D (Escherichia coli JUHL) of 8 µg/mL, an Antibacterial Activity (MIC's), E [1] of 0.125 µg/mL and an Antibacterial Activity (MIC's), A [2] of 0.125 µg/mL. For the same compound, the Antibacterial Activity (MIC's), B [3] was 2 µg/mL and the Antibacterial Activity (MIC's), F [4] was 0.5 µg/mL.
With `COc1c(-c2cc3c(s2)CC(=O)C3)ccc2c(=O)c(C(=O)O)cn(C3CC3)c12` [Example 247, 1-cyclopropyl-8-methoxy-4-oxo-7-(5-oxo-5,6-dihydro-4H-cyclopenta[b]thien-2-yl)-1,4-dihydro-3-quinolinecarboxylic acid] the Antibacterial Activity (MIC's), D (Escherichia coli JUHL) was 4 µg/mL, the Antibacterial Activity (MIC's), E [1] was 0.25 µg/mL and the Antibacterial Activity (MIC's), A [2] was 0.125 µg/mL. The Antibacterial Activity (MIC's), B [3] was 2 µg/mL and the Antibacterial Activity (MIC's), F [4] was 0.25 µg/mL.
In the case of `CNC1CCCc2sc(-c3ccc4c(=O)c(C(=O)O)cn(C5CC5)c4c3OC(F)F)cc21` (stereo not drawn) [Example 107, 1-cyclopropyl-8-(difluoromethoxy)-7-(4-(methylamino)-4,5,6,7-tetrahydro-1-benzothien-2-yl)-4-oxo-1,4-dihydro-3-quinolinecarboxylic acid hydrochloride], the Antibacterial Activity (MIC's), D (Escherichia coli JUHL) is reported as 0.25 µg/mL, the Antibacterial Activity (MIC's), E [1] is reported as 0.06 µg/mL and the Antibacterial Activity (MIC's), A [2] is reported as 0.06 µg/mL. It also gave an Antibacterial Activity (MIC's), B [3] of 0.5 µg/mL and an Antibacterial Activity (MIC's), F [4] of 0.06 µg/mL.
In the case of `Nc1c(F)c(-c2cc3c(s2)C(O)CCC3)c(F)c2c1c(=O)c(C(=O)O)cn2C1CC1` (stereo not drawn) [Example 319, 5-amino-1-cyclopropyl-6,8-difluoro-7-(7-hydroxy-4,5,6,7-tetrahydro-1-benzothien-2-yl)-4-oxo-1,4-dihydroquinoline-3-carboxylic acid], the Antibacterial Activity (MIC's), D (Escherichia coli JUHL) is reported as 0.06 µg/mL, the Antibacterial Activity (MIC's), E [1] is reported as 0.015 µg/mL and the Antibacterial Activity (MIC's), A [2] is reported as no more than 0.004 µg/mL. It also gave an Antibacterial Activity (MIC's), B [3] of 0.06 µg/mL and an Antibacterial Activity (MIC's), F [4] of 0.03 µg/mL.
`COc1c(-c2cc3c(s2)CCC(C)C3=O)ccc2c(=O)c(C(=O)O)cn(C3CC3)c12` (stereo not drawn) [Example 106, 1-cyclopropyl-8-methoxy-7-(5-methyl-4-oxo-4,5,6,7-tetrahydro-1-benzothien-2-yl)-4-oxo-1,4-dihydro-3-quinolinecarboxylic acid] showed an Antibacterial Activity (MIC's), D (Escherichia coli JUHL) of 0.5 µg/mL, an Antibacterial Activity (MIC's), E [1] of 0.06 µg/mL and an Antibacterial Activity (MIC's), A [2] of 0.08 µg/mL. The Antibacterial Activity (MIC's), B [3] was 0.125 µg/mL and the Antibacterial Activity (MIC's), F [4] was 0.125 µg/mL.
`COc1c(-c2cc3c(s2)CCC(=O)C3)ccc2c(=O)c(C(=O)O)cn(C3CC3)c12` [Example 53, 1-cyclopropyl-8-methoxy-4-oxo-7-(5-oxo-4,5,6,7-tetrahydro-1-benzothien-2-yl)-1,4-dihydro-3-quinolinecarboxylic acid] showed an Antibacterial Activity (MIC's), D (Escherichia coli JUHL) of 8 µg/mL, an Antibacterial Activity (MIC's), E [1] of 1 µg/mL and an Antibacterial Activity (MIC's), A [2] of 0.06 µg/mL. For the same compound, the Antibacterial Activity (MIC's), B [3] was 2 µg/mL and the Antibacterial Activity (MIC's), F [4] was 0.5 µg/mL.
With `O=C(O)c1cn(C2CC2)c2cc(-c3cc4c(s3)C(O)CCC4)c(F)cc2c1=O` (stereo not drawn) [Example 293, 1-cyclopropyl-6-fluoro-7-(7-hydroxy-4,5,6,7-tetrahydro-1-benzothien-2-yl)-4-oxo-1,4-dihydroquinoline-3-carboxylic acid] the Antibacterial Activity (MIC's), D (Escherichia coli JUHL) was 0.015 µg/mL, the Antibacterial Activity (MIC's), E [1] was no more than 0.004 µg/mL and the Antibacterial Activity (MIC's), A [2] was no more than 0.004 µg/mL. For the same compound, the Antibacterial Activity (MIC's), B [3] was 0.008 µg/mL and the Antibacterial Activity (MIC's), F [4] was 0.03 µg/mL.
With `COc1c(-c2cc3c(s2)CCC(C)C3N)ccc2c(=O)c(C(=O)O)cn(C3CC3)c12.Cl` (stereo not drawn) [Example 199, 7-(4-amino-5-methyl-4,5,6,7-tetrahydro-1-benzothien-2-yl)-1-cyclopropyl-8-methoxy-4-oxo-1,4-dihydro-3-quinolinecarboxylic acid hydrochloride] the Antibacterial Activity (MIC's), D (Escherichia coli JUHL) was 0.25 µg/mL, the Antibacterial Activity (MIC's), E [1] was 0.125 µg/mL and the Antibacterial Activity (MIC's), A [2] was 0.03 µg/mL. It also gave an Antibacterial Activity (MIC's), B [3] of 0.125 µg/mL and an Antibacterial Activity (MIC's), F [4] of 0.06 µg/mL.
`Cc1c(-c2cc3c(s2)CCCC3N)c(F)cc2c(=O)c(C(=O)O)cn(C3CC3)c12.Cl` (stereo not drawn) [Example 321, 7-(4-amino-4,5,6,7-tetrahydro-1-benzothien-2-yl)-1-cyclopropyl-6-fluoro-8-methyl-4-oxo-1,4-dihydroquinoline-3-carboxylic acid hydrochloride] gave an Antibacterial Activity (MIC's), D (Escherichia coli JUHL) of 0.015 µg/mL, an Antibacterial Activity (MIC's), E [1] of no more than 0.004 µg/mL and an Antibacterial Activity (MIC's), A [2] of no more than 0.004 µg/mL. For the same compound, the Antibacterial Activity (MIC's), B [3] was 0.015 µg/mL and the Antibacterial Activity (MIC's), F [4] was no more than 0.004 µg/mL.
